Results reported in paper PMC8596838, “Xylose‐Configured Cyclophellitols as Selective Inhibitors for Glucocerebrosidase” (Chembiochem, 2021).
Read-outs that look alike come from different tables or passages of the source.

How the values were obtained:
[1] = target: GBA2 (Danio rerio, UniProt E7F5W0); assay: In vivo inhibition in zebrafish larvae, read out by cABPP with ABP 10, GBA2; design: species or system zebrafish (Danio rerio)
From the text: We further investigated the affinity of 1 and 2 towards β‐D‐glucosidases in living animals using zebrafish (Danio rerio) embryos, which express both GBA and GBA2. Following exposure for 5 days, fish larvae were sacrificed and lysed, and cABPP with ABP 10 was used to detect residual active β‐D‐glucosidase molecules in the lysates and for IC50 determination. […] Aziridine compound 2 is also selective against GBA over GBA2, albeit with a narrower selectivity window (Figure 6A–C). We noted that the apparent IC50 in zebrafish embryo is much […] than the observed in intact cells despite the longer incubation time, which could be a result of poorer bioavailability of the cyclophellitol‐related structures in whole animal, as noted earlier by us.[36]
Figure 6 In vivo inhibitory effect of β‐D‐xylo‐configured compounds on β‐glucosidases in zebrafish (Danio rerio) larvae. (A) Larvae were exposed to 5 dpf with the indicated inhibitor 1 or 2 in the medium. Larvae were lysed and incubated with fluorescent ABP 10. Fluorescently labeled proteins were visualized after SDS‐PAGE, only GBA and GBA2 were assessed in zebrafish larvae model. (B) Apparent IC50 values towards β‐glucosidases (GBA and GBA2) were determined by the fluorescence quantification based on cABPP results. (C) In vivo inhibition curves. (D) GlcSph levels in zebrafish larvae were determined as described in experiment section, n=2 replicates.
(§1) ABP labeling procedure: Glycosidases were labeled with excess fluorescent ABPs at optimum conditions. ABP labeling was performed at 37 °C for 30 min for all materials (if not otherwise stated), in a total sample volume of 20–40 μL and 0.5–1 % DMSO concentration. GBA was labeled with 200 nM ABP 9 (pH 5.2, 0.1 % (v/v) Triton‐100, 0.2 % (w/v) sodium taurocholate), or labeled together with GBA2 using 200 nM β‐D‐glucose‐configured aziridine ABP 10 at pH 5.8, or labeling together with GBA2 and GBA3 using 200 nM β‐D‐glucose‐configured aziridine ABP 10 at pH 6.0. After ABP incubation, proteins were denatured by boiling the samples with 5× Laemmli buffer (50 % (v/v) 1 M Tris‐HCl, pH 6.8, 50 % (v/v) 100 % glycerol, 10 % (w/v) DTT, 10 % (w/v) SDS, 0.01 % (w/v) bromophenol blue) for 5 min at 98 °C, and separated by electrophoresis on 10 % (w/v) SDS‐PAGE gels running continuously at 90 V. Wet slab‐gels were scanned on fluorescence using the Typhoon FLA 9500 (GE Healthcare) at λEX 473 nm and λEM≥510 nm for green fluorescent ABP 8; and at λEX 635 nm and λEM≥665 nm for ABP 6, 9 and 10. ABP‐emitted fluorescence was quantified using ImageQuant software (GE Healthcare, Chicago, IL, USA) and curve‐fitted using Prism 8.0 (GraphPad Software). After fluorescence scanning, SDS‐PAGE gels were stained for total protein with Coomassie G250 and scanned on a ChemiDoc MP imager (Bio‐Rad, Hercules, CA, USA).[25]
Inhibition of enzymes in zebrafish larvae: Experiments were performed with 5 dpf larvae. For inhibitor treatment, a single fertilized embryo was seeded in a well of a 96‐wells plate, and exposed to 200 μL corresponding inhibitor for 115 hours at 28.5 °C. Per condition, n=24 embryos were used. At 115 hours (5 dpf), larvae were collected, rinsed three times with egg water, fully aspirated, snap‐frozen in liquid nitrogen and stored at −80 °C until homogenization in 96 μL 25 mM potassium phosphate buffer per 24 individuals. Lysis was conducted by sonication with a Polytron PT 1300D sonicator (Kinematica, Luzern, Switzerland) on ice at 20 % power for three seconds, and repeated three times. […]

[2] = target: T1, GBA3 (Homo sapiens, UniProt Q9H227); assay: Inhibition in intact HEK293T cells (24 h), read out by cABPP with ABP 10, GBA3; type: cell-based; conditions: for IC50: 24 h treatment, cABPP quantification, n=3; for GBA3/GBA ratio, intact cells: IC50 ratio, 24 h
T1 construct: expressed in transfected cells; host or cells: HEK293T (GBA/GBA2 KO background for the fluorogenic assay; endogenous-GBA background with GBA2 and GBA3 overexpressed for ABPP and intact-cell assays)
T1 sequence (Q9H227 1-469): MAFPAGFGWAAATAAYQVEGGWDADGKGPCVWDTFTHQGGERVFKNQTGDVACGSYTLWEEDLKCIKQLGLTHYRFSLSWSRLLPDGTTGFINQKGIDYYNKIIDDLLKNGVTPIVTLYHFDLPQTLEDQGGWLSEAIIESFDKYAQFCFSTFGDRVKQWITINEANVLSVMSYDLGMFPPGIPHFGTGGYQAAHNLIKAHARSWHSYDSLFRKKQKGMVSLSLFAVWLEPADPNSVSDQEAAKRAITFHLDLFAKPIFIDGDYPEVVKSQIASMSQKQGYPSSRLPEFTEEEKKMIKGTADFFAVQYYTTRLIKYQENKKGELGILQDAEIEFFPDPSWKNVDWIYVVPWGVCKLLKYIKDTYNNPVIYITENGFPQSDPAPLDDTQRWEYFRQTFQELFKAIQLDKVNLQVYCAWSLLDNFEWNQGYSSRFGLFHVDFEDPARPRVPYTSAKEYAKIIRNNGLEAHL
From the text: We next examined the activity of 1 and 2 towards the three human β‐D‐glucosidase in intact HEK293T cells. […] It is noted that the GBA‐selectivity of both compounds is much improved in intact cells than in the in vitro system (Figure 2 and Table 1). This is especially true for compound 1, where an impressive 4‐logs of selectivity window is observed.
Figure 5 Inhibitory effect of β‐D‐xylo‐configured cyclophellitol 1 and cyclophellitol aziridine 2 on β‐glucosidases in intact HEK293T cells expressing GBA, GBA2 and GBA3. (A) Representative gel images of cABPP where cells were treated for 24 h with indicated inhibitor. Lysates were then prepared and labeled with fluorescent ABP 10. Fluorescently labeled proteins were visualized after SDS‐PAGE (1 set from n=3 replicates). (B) IC50 curves determined by cABPP labeling results. (C) Apparent IC50 values towards β‐glucosidases in intact HEK293T cells producing GBA, GBA2 and GBA3 were determined by the fluorescence quantification based on cABPP SDS‐PAGE results.
as §1
Assessment of inhibitor activity in cultured cells: Confluent HEK293T stably expressing human GBA and GBA2 GBA3 overexpressing were cultured in 24‐well plates in triplicates with(out) inhibitors for 24 h at 37 °C with 7 % CO2. […]

[3] = IC50 ratio, zebrafish larvae 5 dpf

Chain of GBA2 (E7F5W0 entry or part of it): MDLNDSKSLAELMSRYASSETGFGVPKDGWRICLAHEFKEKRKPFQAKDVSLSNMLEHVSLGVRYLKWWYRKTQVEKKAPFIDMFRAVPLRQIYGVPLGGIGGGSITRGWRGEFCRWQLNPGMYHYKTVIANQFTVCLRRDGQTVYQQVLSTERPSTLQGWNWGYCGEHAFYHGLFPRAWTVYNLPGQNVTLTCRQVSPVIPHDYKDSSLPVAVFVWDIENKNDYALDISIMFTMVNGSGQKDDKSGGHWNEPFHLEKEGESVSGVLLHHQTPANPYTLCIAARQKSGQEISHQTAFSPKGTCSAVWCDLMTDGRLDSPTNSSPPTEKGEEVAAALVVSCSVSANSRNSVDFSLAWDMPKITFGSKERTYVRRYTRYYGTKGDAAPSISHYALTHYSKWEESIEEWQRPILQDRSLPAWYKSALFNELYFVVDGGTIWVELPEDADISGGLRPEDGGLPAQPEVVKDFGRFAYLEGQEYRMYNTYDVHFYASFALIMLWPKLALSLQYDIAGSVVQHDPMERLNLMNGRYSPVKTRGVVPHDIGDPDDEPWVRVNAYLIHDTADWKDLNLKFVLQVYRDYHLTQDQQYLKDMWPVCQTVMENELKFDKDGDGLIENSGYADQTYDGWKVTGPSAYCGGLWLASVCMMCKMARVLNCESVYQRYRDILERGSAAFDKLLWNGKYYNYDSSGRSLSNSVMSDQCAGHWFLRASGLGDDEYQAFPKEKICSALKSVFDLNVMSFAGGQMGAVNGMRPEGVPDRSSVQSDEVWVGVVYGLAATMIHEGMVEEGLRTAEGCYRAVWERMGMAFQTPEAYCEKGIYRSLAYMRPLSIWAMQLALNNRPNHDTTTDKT

| Structure (SMILES) | effect on ABP labelling of GBA2 in zebrafish at 150 μM ([1]; 150 μM, exposure for 5 days) | GBA2/GBA ratio, zebrafish larvae [1, 3] | IC50 ([1]; larvae exposed to 5 dpf, inhibitor in the medium, cABPP quantification; read-out: Zebrafish larvae IC50 GBA2) [µM] | IC50 [2] [µM] | GBA3/GBA ratio, intact cells [2] | IC50 ([1]; read-out: Zebrafish larvae IC50 GBA2; larvae exposed to 5 dpf, inhibitor in the medium, cABPP quantification) [µM] |
| --- | --- | --- | --- | --- | --- | --- |
| O[C@@H]1[C@@H](O)[C@H](O)C[C@H]2O[C@@H]12 [compound 1, xylo‐cyclophellitol] | without targeting GBA2 | > 50 | > 150 | > 100 | > 10000 | – |
| O[C@@H]1[C@@H](O)[C@H](O)C[C@H]2N[C@@H]12 [compound 2, β‐D‐xylo‐Cyclophellitol aziridine] | – | 21 | – | 48.9 ± 12.7 | 1159 | 150 |
